Here are results for five compounds from article PMC5648763, “Novel cycloneolignans from Vernicia fordii with inhibitory effects on over-activation of BV2 cells in vitro” (Scientific Reports, 2017).

Holding throughout (type): cell-based, murine
The test system of one series is BV2 cells. The series is described as follows: Cell viability / cytotoxicity by MTT method. As to the method:
(§1) Figure 5 Effect of compounds 1 and 2 on LPS-induced NO production in microglial cells. (A) BV-2 cells were treated with compounds 1 and 2 in the presence of LPS (100 ng/ml) for 24 h at the indicated concentrations. Cell viability was detected by MTT assay. (B) BV-2 cells were treated with compounds 1 and 2 in the presence of LPS (100 ng/ml) for 24 h. NO production was tested by Griess reaction. Data are expressed as means ± SEM (n = 3). ^#P < 0.05 compared with the control group, *P < 0.05 compared with LPS group.
(§2) The murine microglial cell line BV-2 was from Shanghai Institutes for Biological Sciences, Chinese Academy of Sciences (kindly provided by Prof. Y.Q. Guo, Nankai University, China). BV-2 cells were grown (37 °C and 5% CO2) in DMEM supplemented with 10% FBS, 100 U/ml penicillin and 100 μ g/ml streptomycin. Stock cells were passaged about three times/week and used within 8 passages.
(§3) Viability of BV2 cells was tested by MTT method described in our previous work[9]–[12]. The cells (2 × 10^4 cells / well) were plated into 96-well plates and were pretreated with tested samples at different concentrations for 24 h. After the supernatant taken away, MTT (0.25 mg/ml) was added into the plate and incubated for 4 h at 37 °C. Finally, the formazan crystals were dissolved in DMSO and the absorbance of each well was recorded at 490 nm using a plate reader (Bio-Tek, Winooski, VT, USA).
(Formazan colour is commonly taken as a measure of viable cells.)

A short description of series [1]: Cell viability / cytotoxicity by MTT method. To be noted: mouse. Here is the method: as §1, §2, §3
The test system of series [2] is IL-6 mRNA expression in BV2 cells. The series is described as follows: LPS-induced IL-6 mRNA expression in BV-2 cells (Real-time PCR). As to conditions: 10 μM, pretreated 2 h, then LPS (100 ng/mL) 4 h, qRT-PCR. Here is the method: (§4) Figure 7 Effects of compounds 1, 1a, 1b, 2, 2a and 2b on LPS-induced IL-6 and IL-1β mRNA expression in microglial cells. BV-2 microglial cells were pretreated with compounds1, 2, 1a, 1b, 2a and 2b (10 μM) for 2 h and then stimulated with LPS (100 ng/mL). Total RNA was isolated 4 h after LPS treatment, the mRNA levels of IL-6 and IL-1β were measured by qRT-PCR. Data are expressed as means ± SEM (n = 3). ^#P < 0.05 compared with the control group, *P < 0.05 compared with LPS group. Mino stands for minocycline.
as §2
(§5) BV2 cells (4 × 10^5 cells/ml) were plated into 6-well plates and were pretreated with each sample for 2 h and then induced by LPS for 4 h. After that the total RNA was isolated using Trizol and converted to cDNA. CFX ConnectTM real-time PCR detection system (Bio-Rad, Hercules, CA, USA) was used for the experiment. The level of GAPDH gene was used for standardization.

Series [3] relates to NO production in LPS-induced BV2 cells. The series is described as follows: Nitrite assay (Griess reaction): NO production in LPS-induced BV2 cells. To be noted: Mus musculus, BV-2, LPS (100 ng/ml)-activated BV2 cells, 24 h, read-out: Inhibitory effect IC50 on NO production (compounds). As to the method:
as §1, §2
The production of NO in LPS-induced BV2 cells was assayed by Griess reaction[9]–[12]. The cells (2 × 10^4 cells/well) were plated into 96-well plates and incubated with tested samples with 100 ng/mL LPS. Twenty-four hours later, Griess reagent was added into the supernatant at room temperature. And the plates were read on a plate reader at 540 nm after fifteen minutes.
(In general: The Griess reaction detects nitrite, a stable product of nitric oxide.)

The subject of series [4] is IL-1β mRNA expression in BV2 cells. Kind of series: LPS-induced IL-1β mRNA expression in BV-2 cells (Real-time PCR). To be noted: 10 μM, pretreated 2 h, then LPS (100 ng/mL) 4 h, qRT-PCR. As to the method: as §4, §2, §5
Background: Real-time PCR tracks product formation cycle by cycle.

On to `COC1CC2(O)OCC(c3cc(O)c(O)cc31)C2c1ccc(O)c(O)c1` (racemic) [Compound 2, (±) methoxylverniciasin A], for which, in the series on BV2 cells, the “Cytotoxicity at the effective concentrations” value is recorded as “without obvious cytotoxicities”. In addition, the IC50 (as a rule, the concentration needed to halve the response being measured) at 24 h in series [1] was above 100 µM. In addition, the “Effect on LPS-induced IL-6 mRNA expression” value in series [2] is on record as “did not show inhibitory effect”. Further, the IC50 in series [3] turned out to be 17.4 ± 0.87 µM. Moreover, in series [4], the “Effect on LPS-induced IL-1β mRNA expression” value is listed as “did not show inhibitory effect”.

`Oc1ccc(C2C3COC2(O)CC(O)c2cc(O)c(O)cc23)cc1O` (stereo not shown) [Compound 1, Verniciasin A]: in the series with BV2 cells, the “Cytotoxicity at the effective concentrations” value is given as “without obvious cytotoxicities”. In addition, the IC50 at 24 h in series [1] was above 100 µM. The “Effect on LPS-induced IL-6 mRNA expression” value in series [2] is given as “suppressed”. Besides, in series [3], the 50% inhibitory concentration (IC50) was found to be 1.46 ± 0.91 µM. The “Effect on LPS-induced IL-1β mRNA expression” value in series [4] is listed as “suppressed”.

With `Oc1ccc(C2C3COC2(O)CC(O)c2cc(O)c(O)cc23)cc1O` (stereo not shown) [Compound 1a, 7R, 8R, 7′R, 9′S-verniciasin A], in series [2], the “Effect on LPS-induced IL-6 mRNA expression” value is recorded as “significant inhibitory action”. The “Effect on LPS-induced IL-1β mRNA expression” value in series [4] is listed as “significant inhibitory action”.

For `Oc1ccc(C2C3COC2(O)CC(O)c2cc(O)c(O)cc23)cc1O` (stereo not shown) [Compound 1b, 7S, 8S, 7′S, 9′R- verniciasin A], the “Effect on LPS-induced IL-6 mRNA expression” value in series [2] was “did not display inhibitory activity”. Moreover, the “Effect on LPS-induced IL-1β mRNA expression” value in series [4] was “did not display inhibitory activity”.

As to `COC1CC2(O)OCC(c3cc(O)c(O)cc31)C2c1ccc(O)c(O)c1` (stereo not shown) [Compound 2a, 7R, 8R, 7′R, 9′S−7′-methoxylverniciasin A], in series [2], the “Effect on LPS-induced IL-6 mRNA expression” value is “moderate inhibitory effect”. Besides, the “Effect on LPS-induced IL-1β mRNA expression” value in series [4] is “moderate inhibitory effect”.
